The source of these data is article PMC8228365, “Degradation Products of Tryptophan in Cell Culture Media: Contribution to Color and Toxicity” (International Journal of Molecular Sciences, 2021).

Usually GI50 stands for the concentration that inhibits growth by half.

Molecules are shown by their SMILES. Where two headings read alike, the source gives them in different places.

One data set concerns CHOK1 GS cells. The experiment in a line: CellTiter-Glo cytotoxicity assay in CHOK1 GS cell line. The format is cell-based, Chinese hamster. Particulars: Cricetulus griseus. As for the experimental part:
To assay the potential toxicity induced in the CHO cell culture by the Trp degradation products found in this study, a cytotoxicity assay CellTiter-Glo® Luminescent Cell Viability Assay (Cat #G7572, Promega, Madison, WI, USA) was used, following the manufacturer’s instructions. Briefly, the cells were seeded with 25,000 viable cells per cavity of a 96-well opaque white cell culture plate (Thermo Fisher, Waltham, MA, USA) in 80 µL of a pre-warmed medium. […] A DMSO control was added in the same concentration range as the tryptophan degradation compounds were diluted.
A general note: Cellular ATP, detected with luciferase, serves as a proxy for viable cell number.

For a further data set, the system named is cancer cell lines. The arrangement: method as in PMID 22047643. The settings on record: cited from earlier work.
A further data set relates to CHOZN 10 cells. The experiment in a line: CellTiter-Glo cytotoxicity assay in CHOZN 10 cell line. In kind it is cell-based, Chinese hamster. Particulars: Cricetulus griseus, read-out: [GI50] CHOZN 10. The protocol: (§1) To assay the potential toxicity induced in the CHO cell culture by the Trp degradation products found in this study, a cytotoxicity assay CellTiter-Glo® Luminescent Cell Viability Assay (Cat #G7572, Promega, Madison, WI, USA) was used, following the manufacturer’s instructions. Briefly, the cells were seeded with 25,000 viable cells per cavity of a 96-well opaque white cell culture plate (Thermo Fisher, Waltham, MA, USA) in 80 µL of a pre-warmed medium. Tryptophan degradation compounds were added in triplicates to the cells, ranging from 1 mM to 46 nM. A DMSO control was added in the same concentration range as the tryptophan degradation compounds were diluted. The dose response curves were fitted with a 4PL model by GraphPad Prism v.7 (GraphPad Software, San Diego, CA, USA) after luminescence readout with an EnVision 2104 Multilabel Reader (Perkin Elmer, Waltham, MA, USA).

A further data set concerns CHOZN 6 cells. The experiment in a line: CellTiter-Glo cytotoxicity assay in CHOZN 6 cell line. In kind it is cell-based, Chinese hamster. Particulars: Cricetulus griseus, read-out: [GI50] CHOZN 6. As for the experimental part: as §1
The next data set has as its system CHOK1 cells. Description: CellTiter-Glo cytotoxicity assay in CHOK1 cell line. Particulars: Cricetulus griseus. The format is cell-based, Chinese hamster. The protocol:
as §1

The nature of data set [1]: Color measurement (ΔE*) of standards spiked into feed. In kind it is physicochemical. Particulars: theoretical 500 µM, 1% DMSO, ΔE* > 1 deemed significant. The protocol:
(§2) Compounds were dissolved in DMSO at 50 mM and then spiked into the solutions to achieve a final compound concentration of 500µM. Some of the tested compounds formed a precipitate immediately upon spiking of the DMSO solution. As the precipitates in solution can interfere with the absorption measurement, each sample was centrifuged prior to taking absorption measurements, meaning that the final concentrations were not all at 500 µM. […] In stability experiments, eight of these nine compounds (all except 46) were present in at least one condition in the degraded water samples, and four of these nine compounds (28, 31, 38, and 46) were present in the degraded feed.
(§3) Absorbance measurements were taken in the range of 380 nm to 780 nm (20 nm steps) of 100 µL of the samples in four technical replicates (Envision, Perkin Elmer, Waltham, MA, USA). From the absorbance values, the change in color was calculated using L*a*b* and ΔE* values according to DIN 5033-3 and DIN 6174 norms. The CIE 1931 standard observer (2°) and the D65 illuminant were selected.
(§4) Chemical standards were prepared as 50 mM stocks in DMSO and then spiked into the aqueous solutions (either water or feed) to achieve a theoretical compound concentration of 500 µM (1% DMSO). The solutions were centrifuged, and the absorbance measurements of these solutions was measured and converted to ΔE* values as described above. The control condition was pure DMSO (1% v/v).

The subject of data set [2] is CHO cells. The experiment in a line: CHO cell toxicity summarised across the four CHO cell lines. The format is cell-based, Chinese hamster. Particulars: Cricetulus griseus; across all four CHO cell lines; read-out: GI50 across all cell lines. The protocol: as §1
A short description of data set [3]: Color measurement (ΔE*) of standards spiked into water. The format is physicochemical. Particulars: theoretical 500 µM, 1% DMSO, ΔE* > 1 deemed significant. The protocol: as §2, §3, §4
The test system of data set [4] is CHO cells. The settings on record: cited from earlier work.
The mark [5] stands for this setting: CHO-K1, read-out: [GI50] CHOK1 GS.
The mark [6] stands for this setting: CHO-K1, CHOK1 GS cell line, 1 mM to 46 nM, 4PL fit, read-out: [GI50] CHOK1 GS.
[7] abbreviates: CHOZN 10 cell line, 1 mM to 46 nM, 4PL fit.
The mark [8] stands for this setting: CHOZN 6 cell line, 1 mM to 46 nM, 4PL fit.
[9] abbreviates: CHO-K1, CHOK1 cell line, 1 mM to 46 nM, 4PL fit, read-out: [GI50] CHOK1.

Consider `NCCc1c[nH]c2ccccc12` [Compound 11, Tryptamine], for which the concentration for 50% growth inhibition (GI50) in the data set on CHOK1 GS cells (setting [5]) was over 1000 µM.
Take `OC12CCNC1Nc1ccccc12` (stereo not shown) [Compound 10]: the GI50 with CHOK1 GS cells (setting [6]) was over 1000 µM.
Consider `CC(=O)c1nccc2c1[nH]c1ccccc12` [Compound 62, 1-Acetyl-β-carboline], for which, in the data set with CHOK1 GS cells (setting [6]), the GI50 was over 1000 µM.
As for `N[C@@H](Cc1c(Cc2c[nH]c3ccccc23)[nH]c2ccccc12)C(=O)O` [Compound 14, 2-(3-Indolylmethyl)-L-tryptophan], the GI50 with CHOK1 GS cells (setting [6]) was over 1000 µM.
In the case of `O=C(c1c[nH]c2ccccc12)c1nccc2c1[nH]c1ccccc12` [Compound 32, 1H-Indol-3-yl-9H-pyrido[3,4-b]indol-1-ylmethanone], the “toxicity against some cancer cell lines” value with cancer cell lines is on record as “demonstrated toxicity against some cancer cell lines”. The GI50 in the data set with CHOK1 GS cells (setting [6]) was over 1000 µM.
Turning to `c1ccc2c(c1)[nH]c1cnccc12` [Compound 27, Norharmane], the GI50 with CHOZN 10 cells is 64.5 µM; with CHOZN 6 cells, 98.5 µM; in the data set on CHOK1 GS cells (setting [5]), 127 µM; in the data set with CHOK1 cells (CHO-K1, read-out: [GI50] CHOK1), 74.8 µM.
Turning to `NCCc1c(O)[nH]c2ccccc12` [Compound 9], in the data set with CHOK1 GS cells (setting [6]), the GI50 was over 1000 µM.
In the case of `O=C(O)c1cc2c([nH]c3ccccc32)c(C(=O)c2c[nH]c3ccccc23)n1` [Compound 31, 1-(1H-Indol-3-ylcarbonyl)-9H-pyrido[3,4-b]indole-3-carboxylic acid], the GI50 in the data set on CHOZN 10 cells (setting [7]) is 14.4 µM; in the data set on CHO cells [2] it was 10 to 22 µM; with CHOZN 6 cells (setting [8]) it was 13 µM; with CHOK1 GS cells (setting [6]), 34.6 µM; with CHOK1 cells (setting [9]), 21.6 µM. Moreover, in data set [1], the “Color change as measured by ΔE* in feed” value is on record as “significant color change”. In addition, the “toxicity against some cancer cell lines” value with cancer cell lines was “demonstrated toxicity against some cancer cell lines”.
As to `CC1NC(C(=O)O)CC12C(=O)Nc1ccccc12` (stereo not shown) [Compound 25], the concentration for 50% growth inhibition (GI50) in the data set with CHOK1 GS cells (setting [6]) is over 1000 µM.
Still for that read-out and setting: the value for `O=C1Cc2ccccc2N1` [Compound 19, 2-Oxindole] was over 1000 µM; that for `CC(C)CC1NC(C(=O)O)Cc2c1[nH]c1ccccc21` (stereo not shown) [Compound 56, 2,3,4,9-Tetrahydro-1-(2-methylpropyl)-1H-pyrido[3,4-b]indole-3-carboxylic acid] was over 1000 µM; that for `NC(=O)Cc1c[nH]c2ccccc12` [Compound 47, 3-Indoleacetamide] was over 1000 µM.
On to `Cc1nccc2c1[nH]c1ccccc12` [Compound 28, Harmane], for which the GI50 stood at 77.3 µM with CHOZN 10 cells; 65.5 µM with CHOZN 6 cells; 170 µM in the data set on CHOK1 GS cells (setting [5]); 74.9 µM in the data set with CHOK1 cells (CHO-K1, read-out: [GI50] CHOK1). Also, the “Color change as measured by ΔE* in feed” value in data set [1] is “significant color change”.
`NC(CC1C(=O)Nc2ccccc21)C(=O)O` (stereo not shown) [Compound 3, 2-amino-3-(2-oxo-2,3-dihydro-1h-indol-3-yl)propanic acid (Oia)]: in the data set on CHOK1 GS cells (setting [6]), the GI50 is over 1000 µM.
With `O=Cc1c[nH]c2ccccc12` [Compound 18, Indole-3-carboxaldehyde], the GI50 in the data set on CHOZN 10 cells (setting [7]) is 258 µM; in the data set with CHO cells [2] it was over 226 µM; in the data set with CHOZN 6 cells (setting [8]) it was 236 µM; in the data set with CHOK1 GS cells (setting [6]), 295 µM; in the data set with CHOK1 cells (setting [9]), 226 µM.
Consider `NC(CC1(O)C(=O)Nc2ccccc21)C(=O)O` [Compound 4, 3-(3-Hydroxy-2-oxo-2,3-dihydro-1H-indol-3-yl)-L-alanine (diOia)], for which, in the data set on CHOK1 GS cells (setting [6]), the GI50 is over 1000 µM.
Same read-out and setting: the value for `NC(CC(=O)c1ccccc1NC=O)C(=O)O` (stereo not shown) [Compound 2, N-Formylkynurenine] was over 1000 µM.
For the compound `O=C(O)c1cc2c([nH]c3ccccc32)c(-c2ccnc3ccccc23)n1` [Compound 38], the GI50 in the data set with CHOZN 10 cells (setting [7]) is 114 µM; in the data set with CHOZN 6 cells (setting [8]), 98.9 µM; with CHOK1 GS cells (setting [6]), 118 µM; with CHOK1 cells (setting [9]), 124 µM. For the same compound, in [3], the “Color change as measured by ΔE* in water” value is recorded as “significant color change”.
Turning to `O=C(O)C1Cc2c([nH]c3ccccc23)C=N1` (stereo not shown) [Compound 24], the GI50 was 306 µM in the data set on CHOZN 10 cells (setting [7]); over 226 µM with CHO cells [2]; 314 µM in the data set on CHOZN 6 cells (setting [8]); 343 µM in the data set with CHOK1 GS cells (setting [6]); 312 µM in the data set on CHOK1 cells (setting [9]). Moreover, the “Color change as measured by ΔE* in feed” value in data set [1] is listed as “significant color change”. Also, in [3], the “Color change as measured by ΔE* in water” value was “significant color change”.
As for `Nc1ccccc1C(=O)CC(N)C(=O)O` (stereo not shown) [Compound 1, Kynurenine], the GI50 in the data set on CHOK1 GS cells (setting [6]) was over 1000 µM.
With `CC1NC(C(=O)O)Cc2c1[nH]c1ccccc21` (stereo not drawn) [Compound 23, 1-Methyl-2,3,4,9-tetrahydro-1H-beta-carboline-3-carboxylic acid], the GI50 in the data set with CHOK1 GS cells (setting [6]) was over 1000 µM.
For `Cc1ncc(CO)c(C2NC(C(=O)O)Cc3c2[nH]c2ccccc32)c1O` (stereo not shown) [Compound 42], in the data set on CHOK1 GS cells (setting [6]), the GI50 was over 1000 µM.
Same read-out and setting: the value for `O=C(O)c1ccnc2ccccc12` [Compound 21, 4-Quinolinecarboxylic acid] was over 1000 µM; that for `Cc1nc(C(=O)O)cc2c1[nH]c1ccccc12` [Compound 45] was over 1000 µM.
As for `O=C(O)c1cc2c([nH]c3ccccc32)c(-c2ccccc2)n1` [Compound 16], the GI50 in the data set with CHOZN 10 cells (setting [7]) turned out to be 57.6 µM; in the data set on CHOZN 6 cells (setting [8]), 88.5 µM; with CHOK1 GS cells (setting [6]) it was 76.6 µM; in the data set with CHOK1 cells (setting [9]), 74.9 µM. Further, the “Color change as measured by ΔE* in water” value in data set [3] was “significant color change”.
In the case of `Oc1ccnc2ccccc12` [Compound 20, 4-Hydroxyquinoline], in the data set with CHOK1 GS cells (setting [5]), the GI50 is over 1000 µM.
`OCc1nccc2c1[nH]c1ccccc12` [Compound 29]: the GI50 in the data set with CHOZN 10 cells (setting [7]) is 347 µM; with CHOZN 6 cells (setting [8]), over 1000 µM; with CHOK1 GS cells (setting [6]), 157 µM; in the data set with CHOK1 cells (setting [9]), 389 µM.
For `O=C(O)CCC(=O)C(=O)O` [aKG, a-Ketoglutaric acid], the “effect on the CHO cell culture” value in the data set on CHO cells [4] (up to 50 mM) was “no detrimental effect”.
For the compound `O=CCc1c[nH]c2ccccc12` [Compound 12, Indole-3-acetaldehyde], the GI50 amounted to 92.3 µM in the data set on CHOZN 10 cells (setting [7]), 54.5 µM in the data set with CHOZN 6 cells (setting [8]), 64.5 µM with CHOK1 GS cells (setting [6]) and 116 µM in the data set with CHOK1 cells (setting [9]).
In the case of `c1ccc2ncccc2c1` [Compound 8, Quinoline], in the data set on CHOK1 GS cells (setting [5]), the GI50 is over 1000 µM.
On to `O=C(O)c1nccc2c1[nH]c1ccccc12` [Compound 5, 9H-Pyrido[3,4-b]indole-1-carboxylic acid], for which the GI50 was 75.5 µM in the data set on CHOZN 10 cells (setting [7]), 76.7 µM in the data set on CHOZN 6 cells (setting [8]), 118 µM with CHOK1 GS cells (setting [6]) and 158 µM in the data set with CHOK1 cells (setting [9]). Moreover, the “Color change as measured by ΔE* in feed” value in data set [1] was “significant color change”. For the same compound, the “Color change as measured by ΔE* in water” value in data set [3] is listed as “significant color change”.
Turning to `O=C(O)C1CC2(O)c3ccccc3NC2N1` (stereo not shown) [Compound 6, 1,2,3,3a,8,8a-Hexahydro-3a-hydroxypyrrolo[2,3-b]indole-2-carboxylic acid (PIC)], the GI50 with CHOK1 GS cells (setting [6]) was over 1000 µM.
For the compound `O=C(O)CCC(=O)O` [Compound 66, succinic acid], the “toxicity to CHO cells” value with CHO cells [4] is given as “not toxic to CHO cells”.
